# Measured values as given in patent US20190351012A1, “TARGETING OF INTERFERON-STIMULATED GENE EXPRESSION TO TREAT INTERFERONOPATHIES” (New York University, priority 2018, published 2019).
# System: ISG54 promoter activity in HEK293T cells
# Assay: ISG54 promoter luciferase reporter in HEK293T cells
# Assay type: cell-based, human
# Method: FIG. 5. BRD4 is required for ISG transcription. (A) HeLa cells were either left untreated or treated with IFN-α for 1 h in presence or absence of JQ-1 or HMBA. Using primers spanning intron-exon junctions, nuclear pre-mRNA for ISG54 and γ-actin were quantified by real-time RT-PCR and normalized to GAPDH mRNA. (B) Control and BRD4 KD cells were either left untreated or treated with IFN-α. ISG56 and BRD4 mRNA were quantified using real-time RT-PCR and normalized to GAPDH mRNA abundance. (C) HEK293T cells were transfected with pcDNA3 (Ctl) or Brd4 expression constructs along with a luciferase reporter driven by the ISG54 promoter. […] Nuclear proteins were extracted as a soluble fraction and a chromatin bound fraction and analyzed by western blotting using anti-BRD4, H4-AcK5 and actin antibodies. […] (F) ChIP assays were performed with antibodies against BRD4 and recovered ISG56, Mx1 and IRF9 TSS spanning sequences were quantified by real-time PCR, normalized to input, and represented as fold enrichment over the untreated sample.
# It has been shown that BRD4 coordinates the recruitment of P-TEFb to regulate transcription of target genes, including ISGs. […] In order to focus on transcriptional events, we again monitored induction of ISG unspliced pre-mRNA. […]
# Nuclear extracts were prepared and analyzed by immunoblotting as follows. […]
compound,measurement,setting,value
"CC(/C=C/C(=O)NO)=C\[C@@H](C)C(=O)c1ccc(N(C)C)cc1 [TSA, Trichostatin A]",IFN-driven ISG54 promoter activity (luciferase),HEK293T cells,completely suppressed
same,Brd4-driven ISG54 promoter expression (luciferase),"HEK293T cells overexpressing Brd4, with or without TSA and IFN",No significant differences
